Legend:
Dose tolerance in mice = assay type: in vivo
Protocol: MS-0022 tolerance was tested by daily injections of 200 mg/kg MS-0022 for 5 days in 7–8 week old male C57BL mice. Animal were observed daily for outward signs of toxicity (weight loss, fur ruffling, hunched posture).

[1] = system: Gli1 mRNA expression in Sufu−/− MEF; test: Real time PCR of Gli1 mRNA in Sufu−/− MEF; assay type: cell-based, mouse; conditions: 10 µM, 72 hours
Protocol: (§1) Cells were lysed for RNA extraction after 48 or 72 hours of treatment. Total RNA from cultured cells or tumor tissue was isolated using the GeneElute miniprep kit (Sigma-Aldritch) following the manufacturer^'s instructions. cDNA was synthesized from the isolated mRNA using the Retroscript kit (Ambion), and real-time PCR was carried out using the SYBR Green PCR master mix (Stratagene) according to the manufacturer^'s instructions with an Mx3000P cycler (Stratagene). The relative concentrations of cDNA present in each sample were calculated by the MxPro software (Stratagene), normalized for GAPDH (mRNA from cells) or GUS (mRNA from tumors). For real time PCR primer sequences see Table 6. For the tumor tissue real time PCR, previously described human and mouse specific primers against GUSB, PTCH1 and GLI1were used.

[2] = Compound concentration in mouse liver tissue; assay type: in vivo; conditions: C57BL, 5 mg/kg, 2 hours after IP administration
SUIT-2 cells = test: Passage growth assay, SUIT-2; assay type: cell-based, human; conditions: 5 µM, passage 2 and 3
Protocol: (§2) 20,000 cells were seeded per well in 6 well plates (triplicates) with DMSO or 5 µM MS-0022. Treatment medium was changed on day 3–5, and after 5–7 days the cells were trypsinized, re-suspended in medium and counted, before reseeding cells at 20,000/well for a subsequent passage. The average growth of MS-0022 treated cells was calculated as a percentage of the growth of the DMSO control at the end of each passage. Graphs display average of percent growth with standard deviation bars (n = 3).

PKCθ(h) = biological target: T1, PKCθ(h) (Homo sapiens, UniProt Q04759); test: Millipore kinaseprofiler diversity array; assay type: biochemical; conditions: 10 µM MS-0022
T1 construct: purchased Millipore (Upstate) KinaseProfiler
Protocol: (§3) Table 4 Kinase activity in presence of 10 µM MS-0022 in a kinaseprofiler diversity array. | column: Activity %

PDGFRβ(h) = biological target: T2, PDGFRβ(h) (Homo sapiens, UniProt P09619); test: Millipore kinaseprofiler diversity array; assay type: biochemical; conditions: 10 µM MS-0022
T2 construct: purchased Millipore (Upstate) KinaseProfiler
Protocol: as §3

CDK1/cyclinB(h) = biological target: T3, CDK1/cyclinB(h) (Homo sapiens, UniProt P06493); test: Millipore kinaseprofiler diversity array; assay type: biochemical; conditions: 10 µM MS-0022
T3 construct: purchased Millipore (Upstate) KinaseProfiler
Protocol: as §3

PKG1α(h) = biological target: T4, PKG1α(h) (Homo sapiens, UniProt Q13976); test: Millipore kinaseprofiler diversity array; assay type: biochemical; conditions: 10 µM MS-0022
T4 construct: purchased Millipore (Upstate) KinaseProfiler
Protocol: as §3

p70S6K(h) = biological target: T5, p70S6K(h) (Homo sapiens, UniProt P23443); test: Millipore kinaseprofiler diversity array; assay type: biochemical; conditions: 10 µM MS-0022
T5 construct: purchased Millipore (Upstate) KinaseProfiler
Protocol: as §3

MEK1(h) = biological target: T6, MEK1(h) (Homo sapiens, UniProt Q02750); test: Millipore kinaseprofiler diversity array; assay type: biochemical; conditions: 10 µM MS-0022
T6 construct: purchased Millipore (Upstate) KinaseProfiler
Protocol: as §3

DYRK2(h) = biological target: T7, DYRK2(h) (Homo sapiens, UniProt Q92630); test: Millipore kinaseprofiler diversity array; assay type: biochemical; conditions: 10 µM MS-0022
T7 construct: purchased Millipore (Upstate) KinaseProfiler
Protocol: as §3

MKK7β(h) = biological target: T8, MKK7β(h) (Homo sapiens, UniProt O14733); test: Millipore kinaseprofiler diversity array; assay type: biochemical; conditions: 10 µM MS-0022
T8 construct: purchased Millipore (Upstate) KinaseProfiler
Protocol: as §3

[3] = system: Hh pathway in Shh-L2 cells; test: Hh reporter assay in Shh-L2 cells; assay type: cell-based, mouse
Protocol: Shh-L2 cells were used as a Hh reporter cell line as described previously. Hh signaling was induced by Shh conditioned medium, 200 nM SAG (AH-Diagnostics) and ActOXS (a combination of 5 µM Hydroxycholesterol 20-alfa and 5 µM Hydroxycholesterol 22S (Sigma-Aldrich)). For Shh conditioned medium, Shh-PANC-1 cells were grown to confluence and switched to fresh medium. Shh conditioned medium was harvested after 48 hours, and was diluted to 50% in fresh DMEM before use. The clonal Shh-PANC-1 cell line was generated by stably transducing PANC-1 cells with virus containing medium from HEK293T cells that were transfected using a Virapower Lentiviral expression kit (Invitrogen). The vector was produced by removing GFP from a pLenti 6.2-vector, and inserting the mouse Shh cDNA sequence.
The calculations were performed with an online calculator using the formula: a exp (−bx) + c at the website; http://www.changbioscience.com/stat/ec50.html

[4] = system: Wnt signaling in HEK293 cells; test: Wnt luciferase reporter assay (SuperTop-luc) in HEK293; assay type: cell-based; conditions: HEK293, 10 and 20 µM, 24 hours
Protocol: Vectors were obtained from the following: GliBS-Luc reporter (gift from H. Sasaki), pBluescript (pBS) (Stratagene), FL-HA-GLI1 (Gli1) and Gli2-GFP (Gli2) (gifts from R. Toftgård), Super8XTOPFlash, and NFkB-luc (Panomics). 10 ng renilla luciferase (pRL-TK) (Promega) was used as a transfection control. HEK293 and NIH3T3 cells were seeded at 80,000 per well in 48-well plates on day 1, and were co-transfected on day 2 using a total of 0.4 µg plasmid per well mixed at 1∶3 in FUGENE6 according to manufacturer^'s instructions. On day 3, control medium and activating medium (50% L1 conditioned medium, 50% Shh conditioned medium or medium containing 10 ng/mL recombinant rcrTNF-α (R&D Systems)) +/− 10–20 µM MS-0022 were added, using DMSO as a control (the NFkB pathway inhibitor Bay11-7082 was used as a control in the NFkB assay). Samples were analyzed on day 4 or 5 using the Dual Luciferase assay kit according to manufacturer^'s instructions. Graphs display relative or fold reporter activity, and are calculated from a mean ratio of firefly reporter luminescence/pRL-TK luminescence with standard deviation error bars (n = 3). The experiments have been repeated with similar results.

THLE-2 cells = test: Passage growth assay, THLE-2; assay type: cell-based; conditions: 5 µM
Protocol: as §2

PC-3 cells = test: In vitro antiproliferative assay (MTS), PC-3; assay type: cell-based, human; conditions: 4 day
Protocol: Cells were plated at a density of 3000 (THLE-2 and PC-3) and 1000 (PANC-1, SUIT-2 and FEMX) cells per well (on the basis of their growth rate) in 200 µl of medium in a 96-well plate. Medium was changed daily, and after four days, the assay was read using a MTS kit (Promega) according to the instructions of the manufacturer. Graphs display average of percent growth with standard deviation (n = 8).

GLI1 mRNA in PC-3 cells = test: Real time PCR of GLI1 mRNA in PC-3; assay type: cell-based, human; conditions: 48 hrs
Protocol: as §1

T3 sequence (P06493 whole entry): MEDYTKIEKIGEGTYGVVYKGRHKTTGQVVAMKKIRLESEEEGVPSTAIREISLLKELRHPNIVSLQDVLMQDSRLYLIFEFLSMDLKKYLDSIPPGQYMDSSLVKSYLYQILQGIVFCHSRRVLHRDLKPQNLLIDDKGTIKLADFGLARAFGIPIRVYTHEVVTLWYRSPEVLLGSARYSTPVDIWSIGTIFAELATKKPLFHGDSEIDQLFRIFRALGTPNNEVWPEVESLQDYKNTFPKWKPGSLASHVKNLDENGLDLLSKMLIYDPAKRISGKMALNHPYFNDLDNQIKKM
T3 sequence (P14635 whole entry partner): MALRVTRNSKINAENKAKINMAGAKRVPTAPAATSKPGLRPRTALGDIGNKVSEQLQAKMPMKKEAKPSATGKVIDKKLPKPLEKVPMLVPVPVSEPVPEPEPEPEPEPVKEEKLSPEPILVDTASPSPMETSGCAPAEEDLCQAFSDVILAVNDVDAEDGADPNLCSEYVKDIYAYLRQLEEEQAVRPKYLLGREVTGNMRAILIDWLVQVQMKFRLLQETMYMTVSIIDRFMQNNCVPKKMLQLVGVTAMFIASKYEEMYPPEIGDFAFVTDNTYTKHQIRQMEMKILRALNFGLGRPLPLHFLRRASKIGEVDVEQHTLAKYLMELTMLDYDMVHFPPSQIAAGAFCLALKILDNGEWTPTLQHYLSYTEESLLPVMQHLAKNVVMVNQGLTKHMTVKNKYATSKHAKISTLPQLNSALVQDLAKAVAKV
T5 sequence (P23443 whole entry): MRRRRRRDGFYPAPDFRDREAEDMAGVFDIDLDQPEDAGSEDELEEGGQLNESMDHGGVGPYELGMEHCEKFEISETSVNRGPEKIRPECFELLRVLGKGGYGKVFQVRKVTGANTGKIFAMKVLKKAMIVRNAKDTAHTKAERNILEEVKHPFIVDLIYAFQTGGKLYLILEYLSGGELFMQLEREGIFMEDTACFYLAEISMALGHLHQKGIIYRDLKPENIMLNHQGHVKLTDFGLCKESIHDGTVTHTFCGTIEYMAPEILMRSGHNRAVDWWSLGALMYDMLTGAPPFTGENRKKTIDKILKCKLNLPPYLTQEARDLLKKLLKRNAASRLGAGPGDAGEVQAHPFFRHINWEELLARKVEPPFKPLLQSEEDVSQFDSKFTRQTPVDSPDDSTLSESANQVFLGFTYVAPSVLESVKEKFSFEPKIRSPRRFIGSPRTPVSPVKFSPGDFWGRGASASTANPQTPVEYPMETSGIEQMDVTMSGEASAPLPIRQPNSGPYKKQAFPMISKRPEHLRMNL
T8 sequence (O14733 whole entry): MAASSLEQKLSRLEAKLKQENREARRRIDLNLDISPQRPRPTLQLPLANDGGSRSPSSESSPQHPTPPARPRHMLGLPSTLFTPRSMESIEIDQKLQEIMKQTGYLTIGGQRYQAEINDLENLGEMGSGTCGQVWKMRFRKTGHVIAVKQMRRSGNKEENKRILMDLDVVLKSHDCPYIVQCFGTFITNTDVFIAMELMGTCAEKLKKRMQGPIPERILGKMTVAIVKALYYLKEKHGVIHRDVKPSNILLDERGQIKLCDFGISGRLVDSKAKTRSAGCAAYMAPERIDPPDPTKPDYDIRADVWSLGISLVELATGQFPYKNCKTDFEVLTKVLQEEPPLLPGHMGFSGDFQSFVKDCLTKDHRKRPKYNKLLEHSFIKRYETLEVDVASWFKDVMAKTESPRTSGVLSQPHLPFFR
T7 sequence (Q92630 whole entry): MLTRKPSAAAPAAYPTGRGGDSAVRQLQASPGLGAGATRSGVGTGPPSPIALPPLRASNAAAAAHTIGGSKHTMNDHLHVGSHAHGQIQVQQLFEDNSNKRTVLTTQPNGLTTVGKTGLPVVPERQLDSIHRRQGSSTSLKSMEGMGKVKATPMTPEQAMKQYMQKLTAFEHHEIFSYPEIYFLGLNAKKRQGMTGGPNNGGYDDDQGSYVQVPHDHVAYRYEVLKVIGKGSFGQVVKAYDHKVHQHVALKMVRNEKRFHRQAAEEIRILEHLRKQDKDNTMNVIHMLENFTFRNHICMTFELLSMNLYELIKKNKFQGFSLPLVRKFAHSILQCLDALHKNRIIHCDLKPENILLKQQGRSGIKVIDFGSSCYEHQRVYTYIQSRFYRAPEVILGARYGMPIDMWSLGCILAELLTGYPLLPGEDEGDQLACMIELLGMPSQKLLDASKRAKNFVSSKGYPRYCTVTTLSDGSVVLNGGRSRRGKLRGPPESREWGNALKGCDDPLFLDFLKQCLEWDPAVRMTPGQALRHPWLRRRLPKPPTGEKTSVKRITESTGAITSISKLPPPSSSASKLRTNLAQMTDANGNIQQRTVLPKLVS
T6 sequence (Q02750 whole entry): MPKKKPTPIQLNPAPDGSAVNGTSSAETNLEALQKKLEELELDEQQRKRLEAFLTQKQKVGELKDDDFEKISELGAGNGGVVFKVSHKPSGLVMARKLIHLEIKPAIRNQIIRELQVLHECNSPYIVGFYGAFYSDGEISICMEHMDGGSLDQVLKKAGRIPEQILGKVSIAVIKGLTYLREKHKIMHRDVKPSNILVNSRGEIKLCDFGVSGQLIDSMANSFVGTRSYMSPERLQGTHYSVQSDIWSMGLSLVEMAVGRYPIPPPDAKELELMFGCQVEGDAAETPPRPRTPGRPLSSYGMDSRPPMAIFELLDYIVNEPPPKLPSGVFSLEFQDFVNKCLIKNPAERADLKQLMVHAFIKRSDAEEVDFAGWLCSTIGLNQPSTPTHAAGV
T1 sequence (Q04759 whole entry): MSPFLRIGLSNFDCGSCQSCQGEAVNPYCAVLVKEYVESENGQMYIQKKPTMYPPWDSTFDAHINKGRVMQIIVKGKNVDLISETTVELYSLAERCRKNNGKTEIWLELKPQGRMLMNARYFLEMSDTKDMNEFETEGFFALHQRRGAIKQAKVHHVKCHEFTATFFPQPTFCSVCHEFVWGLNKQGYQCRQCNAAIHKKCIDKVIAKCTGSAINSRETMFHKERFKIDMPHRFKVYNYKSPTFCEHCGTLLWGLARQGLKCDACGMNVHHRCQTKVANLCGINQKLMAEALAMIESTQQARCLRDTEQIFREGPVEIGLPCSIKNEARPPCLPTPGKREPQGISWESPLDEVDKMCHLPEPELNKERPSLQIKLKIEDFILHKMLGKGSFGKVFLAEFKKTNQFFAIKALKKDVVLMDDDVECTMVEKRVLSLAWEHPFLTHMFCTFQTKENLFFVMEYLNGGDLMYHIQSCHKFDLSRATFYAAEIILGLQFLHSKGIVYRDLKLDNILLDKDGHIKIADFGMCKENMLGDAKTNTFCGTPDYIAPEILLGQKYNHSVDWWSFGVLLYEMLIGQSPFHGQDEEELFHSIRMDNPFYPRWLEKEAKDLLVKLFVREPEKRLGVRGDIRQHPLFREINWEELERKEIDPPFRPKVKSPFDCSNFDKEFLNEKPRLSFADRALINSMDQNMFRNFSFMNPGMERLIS
T4 sequence (Q13976 whole entry): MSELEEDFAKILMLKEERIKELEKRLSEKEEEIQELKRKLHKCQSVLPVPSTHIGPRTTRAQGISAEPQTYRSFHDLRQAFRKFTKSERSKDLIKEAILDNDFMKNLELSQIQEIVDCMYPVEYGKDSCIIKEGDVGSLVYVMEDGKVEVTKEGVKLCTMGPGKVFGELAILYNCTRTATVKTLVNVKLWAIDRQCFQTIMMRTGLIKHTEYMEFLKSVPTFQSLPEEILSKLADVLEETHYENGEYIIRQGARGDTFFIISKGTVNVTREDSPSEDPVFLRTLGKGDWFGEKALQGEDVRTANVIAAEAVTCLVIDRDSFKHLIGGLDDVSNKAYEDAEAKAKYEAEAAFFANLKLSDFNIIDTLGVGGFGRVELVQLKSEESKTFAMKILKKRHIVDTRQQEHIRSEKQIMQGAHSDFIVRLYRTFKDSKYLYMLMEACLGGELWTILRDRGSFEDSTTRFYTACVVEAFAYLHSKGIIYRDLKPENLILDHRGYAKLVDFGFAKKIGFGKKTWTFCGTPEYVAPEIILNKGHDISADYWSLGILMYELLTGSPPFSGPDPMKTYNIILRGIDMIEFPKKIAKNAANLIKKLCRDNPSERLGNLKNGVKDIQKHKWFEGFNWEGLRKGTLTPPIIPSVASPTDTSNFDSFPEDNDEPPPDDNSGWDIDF

## Cc1cccn2cc(-c3ccc(NC(=O)c4ccccc4Br)cc3)nc12 [MS-0022, 2-bromo-N-(4-(8-methylimidazo[1,2-a]pyridin-2-yl)phenyl)benzamide]
Dose tolerance in mice; 200 mg/kg daily for 5 days
  outward signs of toxicity or other side effects: did not show any outward signs of toxicity
Dose tolerance in mice; daily IP injections of 200 mg/kg for 5 days
  alterations in body weight: No statistically significant alterations
Dose tolerance in mice; male, C57BL, mouse, in vivo, intraperitoneal, 200 mg/kg, mice
  MTD at 5 days: > 200 mg/kg
[1]
  reduction of relative Gli1 mRNA levels in Sufu−/− MEFs: 50%
[2]
  concentration at 2 h: 244 ng/g
SUIT-2 cells
  serial passage growth reduction, SUIT-2: not significant
PKCθ(h)
  activity at 10 µM: 103%
PDGFRβ(h)
  activity at 10 µM: 108%
CDK1/cyclinB(h)
  activity at 10 µM: 110%
PKG1α(h)
  activity at 10 µM: 94%
p70S6K(h)
  activity at 10 µM: 94%
MEK1(h)
  activity at 10 µM: 73%
DYRK2(h)
  activity at 10 µM: 97%
MKK7β(h)
  activity at 10 µM: 109%
[3]; 5 µM, 48 hours, Shh, 200 nM SAG, ActOxs (5 µM+5 µM)
  Hh pathway induction in Shh, SAG and ActOXS induced Shh-L2 cells: blocked Hh pathway induction
[3]; Mus musculus, pathway inhibition in Shh induced Shh-L2 cells, 48 hours treatment
  IC50: 100 nM
[4]
  L1 medium induced Wnt signaling: did not significantly block
THLE-2 cells
  growth by the second passage, THLE-2: not affected
PC-3 cells
  growth (MTS), PC-3: growth was only reduced by MS-0022
GLI1 mRNA in PC-3 cells
  GLI1 mRNA levels, PC-3: reduced GLI1 mRNA levels
